Source: ChEMBL document CHEMBL1921670, “Discovery and optimization of indole and 7-azaindoles as Rho kinase (ROCK) inhibitors (part-II)” (Bioorg Med Chem Lett, 2011)
Values after ≈ are worked out from the molar mass of the structure shown. Active and inactive are the calls of the source. The rule behind the calls is not given here.

What was measured:
[1] = biological target: Rho-associated protein kinase 2 (Homo sapiens, UniProt O75116); test: Inhibition of ROCK2
[2] = biological target: Rho-associated protein kinase 1 (Homo sapiens, UniProt Q13464); test: Inhibition of ROCK1
Chain of Rho-associated protein kinase 1 (Q13464 whole entry): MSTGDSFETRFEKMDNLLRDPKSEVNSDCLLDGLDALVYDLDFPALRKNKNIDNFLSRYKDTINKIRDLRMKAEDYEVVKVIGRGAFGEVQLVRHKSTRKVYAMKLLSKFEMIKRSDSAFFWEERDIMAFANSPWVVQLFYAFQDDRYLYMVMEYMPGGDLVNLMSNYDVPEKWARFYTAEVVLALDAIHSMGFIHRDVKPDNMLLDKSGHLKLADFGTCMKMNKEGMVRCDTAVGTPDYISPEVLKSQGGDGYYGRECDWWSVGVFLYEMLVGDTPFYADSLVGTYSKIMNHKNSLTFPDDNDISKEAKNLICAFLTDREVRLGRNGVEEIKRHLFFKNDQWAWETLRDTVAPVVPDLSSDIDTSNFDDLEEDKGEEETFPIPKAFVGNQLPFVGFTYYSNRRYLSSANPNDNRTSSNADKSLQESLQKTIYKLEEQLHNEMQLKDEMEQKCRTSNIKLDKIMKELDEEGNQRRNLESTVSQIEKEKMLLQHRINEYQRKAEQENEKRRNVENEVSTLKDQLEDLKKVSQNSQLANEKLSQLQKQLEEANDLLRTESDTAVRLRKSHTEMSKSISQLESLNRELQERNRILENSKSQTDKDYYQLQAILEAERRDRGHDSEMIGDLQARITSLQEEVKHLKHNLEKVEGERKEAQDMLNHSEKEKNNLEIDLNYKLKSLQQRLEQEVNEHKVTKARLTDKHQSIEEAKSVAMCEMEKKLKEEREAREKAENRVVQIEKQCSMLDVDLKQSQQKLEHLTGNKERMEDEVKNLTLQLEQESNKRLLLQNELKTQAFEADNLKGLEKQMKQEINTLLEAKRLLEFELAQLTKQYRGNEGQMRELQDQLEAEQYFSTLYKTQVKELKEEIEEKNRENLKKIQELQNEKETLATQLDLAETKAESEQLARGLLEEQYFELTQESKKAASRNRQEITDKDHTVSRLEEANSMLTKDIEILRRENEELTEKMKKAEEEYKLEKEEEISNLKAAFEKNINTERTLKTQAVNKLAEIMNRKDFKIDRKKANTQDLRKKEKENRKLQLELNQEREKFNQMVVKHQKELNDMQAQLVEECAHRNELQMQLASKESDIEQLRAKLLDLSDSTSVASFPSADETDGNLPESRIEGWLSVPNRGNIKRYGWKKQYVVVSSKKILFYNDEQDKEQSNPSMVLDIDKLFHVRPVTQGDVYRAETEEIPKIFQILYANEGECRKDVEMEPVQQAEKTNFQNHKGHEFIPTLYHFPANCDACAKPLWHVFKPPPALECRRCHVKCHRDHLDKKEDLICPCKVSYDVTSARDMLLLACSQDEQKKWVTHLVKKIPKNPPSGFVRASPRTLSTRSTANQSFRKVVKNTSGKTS

[3] = Inhibition of PKA
[4] = Half life in human liver microsomes; type: ADME, Microsome
CYP1A2 = biological target: T1, CYP1A2 (Homo sapiens, UniProt P05177); test: Inhibition of CYP1A2 at 10 uM; type: ADME
T1 sequence (P05177 whole entry): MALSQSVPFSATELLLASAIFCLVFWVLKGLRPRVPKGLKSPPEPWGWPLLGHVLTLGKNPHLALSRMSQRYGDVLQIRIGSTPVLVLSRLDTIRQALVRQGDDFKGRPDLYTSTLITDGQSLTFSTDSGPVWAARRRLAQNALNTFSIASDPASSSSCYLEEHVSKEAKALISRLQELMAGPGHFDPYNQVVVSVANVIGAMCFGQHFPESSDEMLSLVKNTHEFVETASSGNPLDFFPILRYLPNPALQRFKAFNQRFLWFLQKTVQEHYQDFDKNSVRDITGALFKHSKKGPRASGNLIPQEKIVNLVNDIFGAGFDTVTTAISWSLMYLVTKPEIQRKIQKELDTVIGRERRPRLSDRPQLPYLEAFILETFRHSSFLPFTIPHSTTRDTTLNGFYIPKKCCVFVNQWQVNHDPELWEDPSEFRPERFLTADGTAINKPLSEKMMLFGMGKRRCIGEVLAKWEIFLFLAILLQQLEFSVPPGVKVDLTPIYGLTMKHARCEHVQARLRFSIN

CYP2C9 = CYP2C9 (Homo sapiens, UniProt P11712); test: Inhibition of CYP2C9 at 10 uM; type: ADME
Chain of CYP2C9 (P11712 whole entry): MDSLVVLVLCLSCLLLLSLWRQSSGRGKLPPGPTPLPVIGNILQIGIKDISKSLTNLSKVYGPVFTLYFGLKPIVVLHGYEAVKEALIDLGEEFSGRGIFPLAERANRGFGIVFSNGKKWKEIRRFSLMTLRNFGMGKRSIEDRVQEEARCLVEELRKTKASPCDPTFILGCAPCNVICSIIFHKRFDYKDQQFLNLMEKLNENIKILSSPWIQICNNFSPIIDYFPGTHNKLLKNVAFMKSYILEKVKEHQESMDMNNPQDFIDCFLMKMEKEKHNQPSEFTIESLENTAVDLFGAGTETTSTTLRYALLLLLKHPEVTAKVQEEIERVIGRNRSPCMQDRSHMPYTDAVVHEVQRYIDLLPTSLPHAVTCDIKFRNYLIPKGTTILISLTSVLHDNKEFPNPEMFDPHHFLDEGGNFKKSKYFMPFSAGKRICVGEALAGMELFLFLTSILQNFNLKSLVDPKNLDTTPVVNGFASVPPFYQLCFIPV

CYP2D6 = CYP2D6 (Homo sapiens, UniProt P10635); test: Inhibition of CYP2D6 at 10 uM; type: ADME
Chain of CYP2D6 (P10635 whole entry): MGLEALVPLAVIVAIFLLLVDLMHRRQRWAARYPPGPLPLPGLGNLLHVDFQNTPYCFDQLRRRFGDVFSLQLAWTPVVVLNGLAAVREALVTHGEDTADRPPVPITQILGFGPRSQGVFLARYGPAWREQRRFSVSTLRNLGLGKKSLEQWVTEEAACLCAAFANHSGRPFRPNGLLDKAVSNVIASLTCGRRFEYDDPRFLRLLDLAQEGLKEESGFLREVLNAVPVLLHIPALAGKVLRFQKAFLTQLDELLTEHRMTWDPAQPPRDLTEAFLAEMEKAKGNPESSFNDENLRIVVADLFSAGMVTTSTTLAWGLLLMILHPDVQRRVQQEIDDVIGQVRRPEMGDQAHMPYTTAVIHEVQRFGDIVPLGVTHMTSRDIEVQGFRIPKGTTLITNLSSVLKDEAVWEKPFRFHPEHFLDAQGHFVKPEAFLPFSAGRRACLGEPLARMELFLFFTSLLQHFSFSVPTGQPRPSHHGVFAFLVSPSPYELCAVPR

CYP3A4 = CYP3A4 (Homo sapiens, UniProt P08684); test: Inhibition of CYP3A4 at 10 uM; type: ADME
Chain of CYP3A4 (P08684 whole entry): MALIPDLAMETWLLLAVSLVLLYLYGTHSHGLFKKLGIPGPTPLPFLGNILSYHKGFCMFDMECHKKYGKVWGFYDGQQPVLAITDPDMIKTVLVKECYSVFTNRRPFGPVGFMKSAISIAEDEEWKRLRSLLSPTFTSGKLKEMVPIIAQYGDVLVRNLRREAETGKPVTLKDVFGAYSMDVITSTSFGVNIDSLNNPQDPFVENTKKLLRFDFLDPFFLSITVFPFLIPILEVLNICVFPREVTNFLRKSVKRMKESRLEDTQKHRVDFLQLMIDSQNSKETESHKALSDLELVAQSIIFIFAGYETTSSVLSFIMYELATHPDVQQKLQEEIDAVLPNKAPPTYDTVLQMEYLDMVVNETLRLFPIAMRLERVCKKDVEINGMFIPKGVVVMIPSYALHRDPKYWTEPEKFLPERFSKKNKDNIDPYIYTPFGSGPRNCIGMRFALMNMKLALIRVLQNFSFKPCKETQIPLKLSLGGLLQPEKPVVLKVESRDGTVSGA

[5] = Clearance in rat at 1 mg/kg, iv or 2 mg/kg, po; type: ADME, organism-based; settings: in vivo
[6] = Volume of distribution at steady state in rat at 1 mg/kg, iv or 2 mg/kg, po; type: ADME, organism-based; settings: in vivo, read-out: Vdss
[7] = Half life in rat at 1 mg/kg, iv or 2 mg/kg, po; type: ADME, organism-based; settings: in vivo
[8] = Oral bioavailability in rat at 2 mg/kg; type: ADME, organism-based; settings: in vivo
[9] = AUC in rat at 1 mg/kg, iv; type: ADME, organism-based; design: dose 1 mg/kg, route intravenous; settings: plasma
[10] = AUC in rat at 2 mg/kg, po; type: ADME, organism-based; design: dose 2 mg/kg, route oral; settings: plasma
[11] = Cmax in rat at 2 mg/kg, po; type: ADME, organism-based; design: dose 2 mg/kg, route oral; settings: in vivo
[12] = Aqueous solubility of compound at pH 5.5; type: physicochemical; settings: buffer
[13] = Aqueous solubility of compound at pH 7.4; type: physicochemical; settings: buffer
[14] = biological target: Serine/threonine-protein kinase MRCK alpha (Homo sapiens) (UniProt Q5VT25); test: Inhibition of MRCKalpha at 5 uM
[15] = Inhibition of p38 at 5 uM
[16] = biological target: RAC-alpha serine/threonine-protein kinase (Homo sapiens) (UniProt P31749); test: Inhibition of AKT at 5 uM
[17] = biological target: Mitogen-activated protein kinase 10 (Homo sapiens) (UniProt P53779); test: Inhibition of JNK3 at 5 uM
Chain of Mitogen-activated protein kinase 10 (Homo sapiens) (P53779 whole entry): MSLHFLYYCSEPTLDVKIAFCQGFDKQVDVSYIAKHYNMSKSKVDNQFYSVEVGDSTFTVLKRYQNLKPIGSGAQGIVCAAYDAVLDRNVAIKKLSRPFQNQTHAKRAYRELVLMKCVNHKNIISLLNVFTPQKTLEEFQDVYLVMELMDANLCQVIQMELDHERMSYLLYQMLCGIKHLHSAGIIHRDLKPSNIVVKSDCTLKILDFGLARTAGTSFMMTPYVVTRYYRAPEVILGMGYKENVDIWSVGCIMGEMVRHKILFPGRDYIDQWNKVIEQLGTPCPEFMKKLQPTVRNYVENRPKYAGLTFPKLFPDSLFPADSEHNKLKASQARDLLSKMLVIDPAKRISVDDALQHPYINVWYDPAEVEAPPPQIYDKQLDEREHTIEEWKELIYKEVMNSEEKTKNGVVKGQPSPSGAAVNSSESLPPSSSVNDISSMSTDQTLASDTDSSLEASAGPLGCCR

[18] = Inhibition of myosin light chain bisphosphorylation by cell-based assay

Chain of Rho-associated protein kinase 2 (O75116 whole entry): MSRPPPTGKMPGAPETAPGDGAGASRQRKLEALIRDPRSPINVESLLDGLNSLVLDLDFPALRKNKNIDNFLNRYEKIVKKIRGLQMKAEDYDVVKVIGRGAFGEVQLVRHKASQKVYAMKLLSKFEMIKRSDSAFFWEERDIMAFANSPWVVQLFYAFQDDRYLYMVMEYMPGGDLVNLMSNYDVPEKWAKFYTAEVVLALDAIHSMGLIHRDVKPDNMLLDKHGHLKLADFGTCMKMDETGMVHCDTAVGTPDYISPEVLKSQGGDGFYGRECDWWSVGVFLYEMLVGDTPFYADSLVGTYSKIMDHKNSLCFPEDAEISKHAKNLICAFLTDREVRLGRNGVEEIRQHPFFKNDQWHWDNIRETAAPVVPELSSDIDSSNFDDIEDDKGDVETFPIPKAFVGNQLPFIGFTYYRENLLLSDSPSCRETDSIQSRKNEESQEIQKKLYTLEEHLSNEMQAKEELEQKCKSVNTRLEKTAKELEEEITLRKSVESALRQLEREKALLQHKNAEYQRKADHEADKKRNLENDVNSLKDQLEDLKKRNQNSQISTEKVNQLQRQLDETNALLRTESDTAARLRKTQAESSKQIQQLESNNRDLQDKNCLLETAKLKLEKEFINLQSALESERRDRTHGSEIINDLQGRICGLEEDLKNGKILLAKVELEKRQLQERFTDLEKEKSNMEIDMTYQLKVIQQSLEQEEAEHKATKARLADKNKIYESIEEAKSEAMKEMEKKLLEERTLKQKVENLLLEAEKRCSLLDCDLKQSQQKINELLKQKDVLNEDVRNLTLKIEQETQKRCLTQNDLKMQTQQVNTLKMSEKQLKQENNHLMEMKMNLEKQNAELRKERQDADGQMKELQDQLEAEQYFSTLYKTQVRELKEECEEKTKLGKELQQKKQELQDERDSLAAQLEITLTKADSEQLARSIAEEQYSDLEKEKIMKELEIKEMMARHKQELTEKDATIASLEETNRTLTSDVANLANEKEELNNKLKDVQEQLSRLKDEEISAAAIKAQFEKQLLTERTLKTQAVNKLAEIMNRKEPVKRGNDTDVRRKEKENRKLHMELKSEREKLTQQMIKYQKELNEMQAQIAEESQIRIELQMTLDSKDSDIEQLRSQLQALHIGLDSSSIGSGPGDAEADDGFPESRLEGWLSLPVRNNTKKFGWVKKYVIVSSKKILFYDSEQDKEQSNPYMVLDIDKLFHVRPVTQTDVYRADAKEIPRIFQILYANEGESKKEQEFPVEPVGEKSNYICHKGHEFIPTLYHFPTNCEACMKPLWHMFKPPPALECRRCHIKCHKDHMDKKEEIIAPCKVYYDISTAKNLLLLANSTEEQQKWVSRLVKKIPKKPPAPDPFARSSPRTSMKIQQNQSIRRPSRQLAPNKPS

## COc1cccc(CNC(=O)c2cn(CCN3CCCC3)c3nc(-c4cn[nH]c4)ccc23)c1
[1]
  IC50: 0.008 µM
[2]
  IC50: 0.089 µM
[3]
  IC50: > 20 µM
[4]
  half-life: 21 min
CYP1A2
  inhibition at 10 µM: 9%
CYP2C9
  inhibition at 10 µM: 51%
CYP2D6
  inhibition at 10 µM: 69%
CYP3A4
  inhibition at 10 µM: 44%
[5]
  clearance: 114 mL/min/kg
[6]
  Vd: 10 L/kg
[7]
  half-life: 90 min
[8]
  bioavailability: 0%
[9]
  AUC: 0.3 µM·h

## COc1cccc(CN(C(=O)c2cc3ccc(-c4cn[nH]c4)nc3[nH]2)C2CC2)c1
[1]
  IC50: 0.008 µM
[2]
  IC50: 0.033 µM
[3]
  IC50: 1.7 µM
[4]
  half-life: 27 min
CYP1A2
  inhibition at 10 µM: 16%
CYP2C9
  inhibition at 10 µM: 52%
CYP2D6
  inhibition at 10 µM: 30%
CYP3A4
  inhibition at 10 µM: 40%
[5]
  clearance: 21 mL/min/kg
[6]
  Vd: 1.2 L/kg
[7]
  half-life: 54 min
[10]
  AUC: 1 µM·h
[11]
  Cmax: 255 nM
[8]
  bioavailability: 22%
[9]
  AUC: 2.2 µM·h

## COc1cccc(CNC(=O)c2c[nH]c3cc(-c4cn[nH]c4)ccc23)c1
[3]
  IC50: 0.51 µM
[12]
  solubility: ≤ 0.01 µM
[13]
  solubility: ≤ 0.01 µM

## COc1cccc(CNC(=O)c2cc3ccc(-c4cn[nH]c4)nc3n2CCN(C)C)c1
[1]
  IC50: 0.043 µM
[2]
  IC50: 0.243 µM
[3]
  IC50: 3.67 µM
[4]
  half-life: 17 min
CYP1A2
  inhibition at 10 µM: 26%
CYP2C9
  inhibition at 10 µM: 46%
CYP2D6
  inhibition at 10 µM: 55%
CYP3A4
  inhibition at 10 µM: 65%
[14]
  inhibition: inactive
[15]
  inhibition: inactive
[16]
  inhibition: inactive
[17]
  inhibition: inactive

## COc1cccc(CNC(=O)c2cn(CCN(C)C)c3cc(-c4cn[nH]c4)ccc23)c1
[1]
  IC50: < 0.001 µM
[2]
  IC50: 0.005 µM
[3]
  IC50: 7 µM
[18]
  IC50: 0.023 µM
[4]
  half-life: 20 min
CYP1A2
  inhibition at 10 µM: -6%
CYP2C9
  inhibition at 10 µM: 91%
CYP2D6
  inhibition at 10 µM: 53%
CYP3A4
  inhibition at 10 µM: 70%
[5]
  clearance: 42 mL/min/kg
[6]
  Vd: 3.2 L/kg
[7]
  half-life: 72 min
[10]
  AUC: 0.02 µM·h
[8]
  bioavailability: 1%
[12]
  solubility: ≥ 100 µM
[13]
  solubility: 77 µM (≈ 32100 ng/mL)
[9]
  AUC: 1 µM·h

## COc1cccc(CN(C)C(=O)c2cc3ccc(-c4cn[nH]c4)nc3[nH]2)c1
[1]
  IC50: 0.004 µM
[2]
  IC50: 0.027 µM
[3]
  IC50: 0.57 µM
[18]
  IC50: 0.025 µM
[4]
  half-life: 24 min
CYP1A2
  inhibition at 10 µM: 32%
CYP2C9
  inhibition at 10 µM: 83%
CYP2D6
  inhibition at 10 µM: 52%
CYP3A4
  inhibition at 10 µM: 27%

## COc1cccc(CNC(=O)c2[nH]c3cc(-c4cn[nH]c4)ccc3c2CN2CCN(C)CC2)c1
[1]
  IC50: < 0.001 µM
[2]
  IC50: 0.006 µM
[3]
  IC50: 1.3 µM
[18]
  IC50: 0.04 µM
[4]
  half-life: 1 min
CYP1A2
  inhibition at 10 µM: 62%
CYP2C9
  inhibition at 10 µM: 75%
CYP2D6
  inhibition at 10 µM: 86%
CYP3A4
  inhibition at 10 µM: 75%

## COc1cccc(CNC(=O)c2[nH]c3cc(-c4cn[nH]c4)ccc3c2CN2CCOCC2)c1
[1]
  IC50: 0.003 µM
[2]
  IC50: 0.04 µM
[3]
  IC50: 18 µM
[18]
  IC50: 0.13 µM
[4]
  half-life: 8 min
CYP1A2
  inhibition at 10 µM: 46%
CYP2C9
  inhibition at 10 µM: 86%
CYP2D6
  inhibition at 10 µM: 70%
CYP3A4
  inhibition at 10 µM: 86%
[5]
  clearance: 32 mL/min/kg
[6]
  Vd: 2 L/kg
[7]
  half-life: 84 min
[8]
  bioavailability: 0%
[9]
  AUC: 1.2 µM·h

## COc1cccc(CNC(=O)c2cc3ccc(-c4cn[nH]c4)nc3n2CCCO)c1
[1]
  IC50: 0.024 µM
[2]
  IC50: 0.088 µM
[3]
  IC50: 5.8 µM
[14]
  inhibition: inactive
[15]
  inhibition: inactive
[16]
  inhibition: inactive
[17]
  inhibition: inactive

## COc1cccc(CNC(=O)c2cc3ccc(-c4cn[nH]c4)nc3n2C)c1
[1]
  IC50: < 0.001 µM
[2]
  IC50: 0.002 µM
[3]
  IC50: 0.15 µM
[18]
  IC50: 0.025 µM
[4]
  half-life: 68 min
CYP1A2
  inhibition at 10 µM: 1%
CYP2C9
  inhibition at 10 µM: 76%
CYP2D6
  inhibition at 10 µM: 48%
CYP3A4
  inhibition at 10 µM: 40%
[5]
  clearance: 4 mL/min/kg
[6]
  Vd: 0.5 L/kg
[7]
  half-life: 108 min
[10]
  AUC: 7.9 µM·h
[11]
  Cmax: 1190 nM
[8]
  bioavailability: 35%
[9]
  AUC: 11.5 µM·h

## COc1cccc(CNC(=O)c2cc3ccc(-c4cn[nH]c4)cc3[nH]2)c1
[3]
  IC50: 6.7 µM
[12]
  solubility: ≤ 0.01 µM
[13]
  solubility: ≤ 0.01 µM
